Activity calls are given as the source filed them. The rule behind the calls is not given here. Residues, ends and D or L forms follow the SMILES beside them. *: point of attachment. Lauroyl = CCCCCCCCCCCC(=O)*
Legend:
[1] = test system: B16-F10; test: Cytotoxicity in mouse B16/F10 cells assessed as reduction in cell viability incubated for 24 hrs by CCK8 assay; format: functional, cell-based; conditions: B16-F10, 24 h
[2] = test system: A549; test: Inhibition of spheroids growth in human A549 cells 3D tumor spheroids at 5 uM treated on day 0 and measured on day 5 by CCK8 assay; format: functional, cell-based
[3] = test system: PC-3; test: Cytotoxicity in human PC3 cells assessed as reduction in cell viability incubated for 24 hrs by CCK8 assay; format: functional, cell-based; conditions: PC-3, 24 h
[4] = test system: L02; test: Cytotoxicity in human L02 cells assessed as reduction in cell viability incubated for 24 hrs by CCK8 assay; format: cell-based; conditions: L02, 24 h
[5] = test system: B16-F10; test: Anti-metastasis activity in mouse B16/F10 cells implanted in BALB/C mouse assessed as inhibition of lung metastatic nodules at 8 mg/kg, ip dosed every other day for 10 days and measured every 2 days by H and E staining based assay; format: functional, organism-based
[6] = test system: A549; test: Cytotoxicity in human A549 cells assessed as reduction in cell viability at 1.56 to 12.5 uM at 4 degC incubated for 24 hrs by CCK8 assay; format: functional, cell-based
[7] = test system: A549; test: Induction of apoptosis in human A549 cells assessed as late apoptotic cells level at 2 uM incubated for 24 hrs by Annexin-V-FITC/PI staining based analysis (reference value: 2.27%); format: functional
[8] = test system: A549; test: Inhibition of spheroids growth in human A549 cells 3D tumor spheroids assessed as induction of physical shrinking and peripheral collapse at 10 uM treated on day 0 and measured on day 5; format: functional, cell-based
[9] = species on record: Homo sapiens; test: Induction of cell membrane disruption in human erythrocytes cells assessed as induction of hemolysis at 0.098 to 50 uM incubated for 1 hr by fluorescence based assay relative to control; format: cell membranes
[10] = test system: A549; test: Cytotoxicity in human A549 cells assessed as reduction in cell viability at 0.39 to 25 uM pre-incubated in presence of 10% FBS for 48 hrs and measured after 24 hrs by CCK8 assay; format: functional, cell-based
[11] = test system: A549; test: Induction of cell membrane disruption in human A549 cells assessed as LDH release at 3.1 uM incubated for 30 mins by fluorescence based assay relative to control
[12] = Toxicity in mouse B16/F10 cells implanted BALB/C mouse assessed as effect on body weight at 8 mg/kg, ip dosed every other day for 10 days and measured every 5 days; format: organism-based; conditions: in vivo
[13] = Toxicity in mouse B16/F10 cells implanted BALB/C mouse assessed as effect on body weight at 10 mg/kg, ip dosed every other day for 10 days and measured every 5 days; format: organism-based; conditions: in vivo
[14] = test system: A549; test: Induction of cell membrane disruption in human A549 cells assessed as LDH release at 3.25 uM incubated for 30 mins by fluorescence based assay relative to control
[15] = test system: A549; test: Cytotoxicity in human A549 cells assessed as reduction in cell viability at 1.56 to 12.5 uM at 37 degC incubated for 24 hrs by CCK8 assay; format: functional, cell-based
[16] = test system: A549; test: Induction of cell membrane disruption in human A549 cells assessed as shrunken morphology with membrane lysis at 4 uM incubated for 24 hrs by scanning electron microscopy; format: cell-based
[17] = test system: A549; test: Inhibition of colony formation n human A549 cells incubated for 15 days by crystal violet staining based assay; format: functional, cell-based
[18] = test system: A549; test: Induction of apoptosis in human A549 cells assessed as induction of caspase-3 activation at 2 uM incubated for 24 hrs using Ac-DEVD-pNA substrate; format: functional, cell-based
[19] = test system: A549; test: Cytotoxicity in human A549 cells assessed as reduction in cell viability at 1 uM incubated for 24 hrs by CCK8 assay; format: functional, cell-based
[20] = test system: A549; test: Anti-migration activity in human A549 cells 3D tumor spheroids assessed as reduction in cell migration at 2.5 to 10 uM incubated for 48 hrs by gelatin based 3D spheroid based metastasis assay; format: functional
[21] = test system: A549; test: Anti-invasion activity in human A549 cells at 0.5 to 1 uM incubated for 12 hrs by crystal violet staining based Matrigel coated transwell invasion assay; format: functional, cell-based
[22] = test system: A549; test: Potency index, ratio of IC50 for lycosin-I to IC50 for test compound for cytotoxicity in human A549 cells assessed as reduction in cell viability at 0.78 to 50 uM incubated for 24 hrs by CCK8 assay; format: functional
[23] = test system: A549; test: Anti-migration activity in human A549 cells incubated for 12 hrs by crystal violet staining based transwell migration assay; format: functional, cell-based
[24] = test system: A549; test: Cytotoxicity in human A549 cells assessed as reduction in cell viability incubated for 24 hrs by CCK8 assay; format: functional, cell-based; conditions: A549, 24 h
[25] = Stability in mouse serum at 100 uM incubated for 24 hrs at 37 degC by MALDI-TOF MS analysis; format: ADME, cell-free
[26] = test system: A549; test: Induction of apoptosis in human A549 cells assessed as early apoptotic cells level at 2 uM incubated for 24 hrs by Annexin-V-FITC/PI staining based analysis (reference value: 2.27%); format: functional
[27] = test system: A549; test: Induction of cell membrane disruption in human A549 cells at 4 uM incubated for 1 hr by AO/EB staining based fluorescence microscopy
[28] = test system: HEK-293T; test: Cytotoxicity in human HEK293T cells assessed as reduction in cell viability incubated for 24 hrs by CCK8 assay; format: cell-based; conditions: Homo sapiens, HEK-293T
[29] = test system: SW-620; test: Cytotoxicity in human SW620 cells assessed as reduction in cell viability incubated for 24 hrs by CCK8 assay; format: functional, cell-based; conditions: SW-620, 24 h
[30] = test system: MCF7; test: Cytotoxicity in human MCF7 cells assessed as reduction in cell viability incubated for 24 hrs by CCK8 assay; format: functional, cell-based; conditions: MCF7, 24 h
[31] = test system: HeLa; test: Cytotoxicity in human HeLa cells assessed as reduction in cell viability incubated for 24 hrs by CCK8 assay; format: functional, cell-based
[32] = test system: A549; test: Induction of apoptosis in human A549 cells assessed as necrotic cells level at 2 uM incubated for 24 hrs by Annexin-V-FITC/PI staining based analysis (reference value: 2.27%); format: functional
[33] = test system: B16-F10; test: Antitumor activity in mouse B16/F10 cells implanted in BALB/C mouse assessed as inhibition of tumor growth at 10 mg/kg, ip dosed every other day for 10 days and measured every 2 days; format: functional, organism-based
[34] = test system: A549; test: Cytotoxicity in human A549 cells 3D tumor spheroids assessed as reduction in cell viability at 5 to 10 uM treated on day 0 and measured on day 5 by CCK8 assay; format: functional, cell-based
[35] = test system: A549; test: Induction of cell membrane disruption in human A549 cells at 4 uM incubated for 24 hrs by scanning electron microscopy; format: cell-based
[36] = test system: U-87 MG; test: Cytotoxicity in human U87 cells assessed as reduction in cell viability incubated for 24 hrs by CCK8 assay; format: functional, cell-based, U-87MG ATCC
[37] = test system: A549; test: Cytotoxicity in human A549 cells assessed as reduction in cell viability by trypan blue staining method; format: functional, cell-based
[38] = test system: B16-F10; test: Anti-metastasis activity in mouse B16/F10 cells implanted in BALB/C mouse assessed as reduction in lung metastatic nodules at 8 mg/kg, ip dosed every other day for 10 days and measured every 2 days by H and E staining based assay; format: functional, organism-based

For `CCCCCCCCCCCC(=O)N[C@@H](CCCCN)C(=O)NCC(=O)N[C@@H](Cc1c[nH]c2ccccc12)C(=O)N[C@@H](Cc1ccccc1)C(=O)N[C@@H](CCCCN)C(=O)N[C@@H](C)C(=O)N[C@@H](CCSC)C(=O)N[C@@H](CCCCN)C(=O)N[C@@H](CO)C(=O)N[C@H](C(=O)N[C@@H](C)C(=O)N[C@@H](CCCCN)C(=O)N[C@@H](Cc1ccccc1)C(=O)N[C@H](C(=O)N[C@@H](C)C(=O)N[C@@H](CCCCN)C(=O)N[C@@H](CCC(=O)O)C(=O)N[C@@H](CCCCN)C(=O)N[C@@H](CC(C)C)C(=O)N[C@@H](CCCCN)C(=O)N[C@@H](CCC(=O)O)C(=O)N[C@@H](Cc1cnc[nH]1)C(=O)N[C@@H](CC(C)C)C(=O)O)[C@@H](C)CC)[C@@H](C)CC` (Lauroyl-KGWFKAMKSIAKFIAKEKLKEHL-OH), the IC50 [1] was 2000 nM, the “growth inhibition (GI)” value [2] was “Active” and the IC50 [3] was 2200 nM. The IC50 [4] was 3900 nM, the inhibition [5] was “Active” and the Activity [6] was “inactive”. The Activity [7] was 10.88%, the “growth inhibition (GI)” value [8] was “Active” and the Activity [9] was “Active”. The Activity [10] was “Active”, the Activity [11] was 55% and the Activity [12] was “Non-Toxic”. The Activity [13] was “Non-Toxic”, the Activity [14] was 59.4% and the Activity [15] was “Active”. For the same molecule, the Activity [16] was “Active”, the inhibition [17] was “Dose-dependent effect” and the Activity [18] was “Active”. The Activity [19] was “inactive”, the Activity [20] was “Active” and the Activity [21] was “Dose-dependent effect”. For the same molecule, the “Ratio IC50” value [22] was 4 - 15, the Activity [23] was “Dose-dependent effect” and the IC50 [24] was 2200 to 2600 nM. The Stability [25] was “Stable”, the Activity [26] was 0.91% and the Activity [27] was “Active”. For the same molecule, the IC50 [28] was 2200 nM, the IC50 [29] was 2000 nM and the IC50 [30] was 1700 nM. The IC50 [31] was 2800 nM, the Activity [32] was 31.84% and the TGI [33] was “Active”. For the same molecule, the “growth inhibition (GI)” value [34] was “Active”, the Activity [35] was “Active” and the IC50 [36] was 1900 nM. The Activity [37] was “Active” and the inhibition [38] was “Active”.

— ChEMBL document CHEMBL4414655, “Position Effect of Fatty Acid Modification on the Cytotoxicity and Antimetastasis Potential of the Cytotoxic Peptide Lycosin-I” (J Med Chem, 2019)
